Assay results as given in ChEMBL document CHEMBL5724914, “Linking interpersonal differences in gut microbiota composition and drug biotransformation activity” (2024).

Assays:
[1] = (§1) The drug is tested on Z-030 corresponding to mouse gut metagenome with ENA study accession number: PRJEB37062 and ENA sample accession number: ERS12561829 for biotransformation under anaerobic condition. The drug concentrations were measured over 9 timepoints collected between 0 and 24 hours of incubation by liquid-chromatography-coupled mass spectrometry (LC–MS); details: 2 µM
[2] = as §1, with “Z-028” for “Z-030”, “ERS12561827” for “ERS12561829”; details: 2 µM
[3] = as §1, with “Z-027” for “Z-030”, “to” for “to mouse gut”, “ERS12561826” for “ERS12561829”; details: 2 µM
[4] = as §1, with “Z-019” for “Z-030”, “rat” for “mouse”, “ERS12561818” for “ERS12561829”; details: 2 µM
[5] = as §1, with “Z-016” for “Z-030”, “ERS12561815” for “ERS12561829”; details: 2 µM
[6] = as §1, with “Z-011” for “Z-030”, “ERS12561811” for “ERS12561829”; details: 2 µM
[7] = as §1, with “Z-010” for “Z-030”, “to” for “to mouse gut”, “ERS12561810” for “ERS12561829”; details: 2 µM
[8] = as §1, with “Z-004” for “Z-030”, “to” for “to mouse gut”, “ERS12561804” for “ERS12561829”; details: 2 µM
[9] = as §1, with “WLS-240” for “Z-030”, “human” for “mouse”, “ERS12561773” for “ERS12561829”; details: 2 µM
[10] = as §1, with “WLS-098” for “Z-030”, “human” for “mouse”, “ERS12561754” for “ERS12561829”; details: 2 µM
[11] = as §1, with “WLS-038” for “Z-030”, “human” for “mouse”, “ERS12561745” for “ERS12561829”; details: 2 µM
[12] = human gut metagenome, 24 h, 2 µM
[13] = human gut metagenome, 24 h, 2 µM; remark: listed apart in the source
[14] = human gut metagenome, 24 h, 2 µM; remark: listed apart in the source
[15] = human gut metagenome, 24 h, 2 µM; remark: listed apart in the source
[16] = human gut metagenome, 24 h, 2 µM; remark: listed apart in the source
[17] = human gut metagenome, 24 h, 2 µM; remark: listed apart in the source
[18] = human gut metagenome, 24 h, 2 µM; remark: listed apart in the source
[19] = human gut metagenome, 24 h, 2 µM; remark: listed apart in the source
[20] = human gut metagenome, 24 h, 2 µM; remark: listed apart in the source
Note: call rule not given here.

Bacterial Biotransformation [1]	Bacterial Biotransformation [2]	Bacterial Biotransformation [3]	Bacterial Biotransformation [4]	Bacterial Biotransformation [5]	Bacterial Biotransformation [6]	Bacterial Biotransformation [7]	Bacterial Biotransformation [8]	Bacterial Biotransformation [10]	Bacterial Biotransformation [11]	Bacterial Biotransformation [14]	Bacterial Biotransformation [15]	Bacterial Biotransformation [17]	Bacterial Biotransformation [18]	Bacterial Biotransformation [19]	Bacterial Biotransformation [20]	Structure (SMILES)	Bacterial Biotransformation [9]	Bacterial Biotransformation [12]	Bacterial Biotransformation [13]	Bacterial Biotransformation [16]
Compound NOT metabolized	Compound NOT metabolized	Compound metabolized	Compound NOT metabolized	Compound metabolized	Compound NOT metabolized	Compound metabolized	Compound NOT metabolized	Compound metabolized	Compound metabolized	Compound NOT metabolized	Compound NOT metabolized	Compound NOT metabolized	Compound NOT metabolized		Compound NOT metabolized	COc1ccc(/C=C/C(=O)Nc2ccccc2C(=O)O)cc1OC		Compound NOT metabolized	Compound NOT metabolized	Compound metabolized
Compound NOT metabolized	Compound NOT metabolized	Compound NOT metabolized	Compound NOT metabolized	Compound NOT metabolized	Compound metabolized	Compound metabolized	Compound metabolized	Compound metabolized	Compound NOT metabolized	Compound metabolized	Compound metabolized	Compound metabolized	Compound metabolized	Compound metabolized	Compound metabolized	Nc1nc(NC2CC2)c2ncn([C@H]3C=C[C@@H](CO)C3)c2n1.Nc1nc(NC2CC2)c2ncn([C@H]3C=C[C@@H](CO)C3)c2n1.O=S(=O)(O)O [ABACAVIR SULFATE]	Compound metabolized	Compound NOT metabolized	Compound metabolized	Compound metabolized
Compound NOT metabolized	Compound NOT metabolized	Compound NOT metabolized	Compound NOT metabolized	Compound NOT metabolized	Compound NOT metabolized	Compound NOT metabolized	Compound NOT metabolized	Compound metabolized	Compound NOT metabolized	Compound NOT metabolized	Compound NOT metabolized	Compound NOT metabolized	Compound NOT metabolized	Compound NOT metabolized	Compound NOT metabolized	CCN(CC)CCNC(=O)c1ccc(NC(C)=O)cc1 [ACECAINIDE]	Compound metabolized	Compound NOT metabolized	Compound NOT metabolized	Compound metabolized
Compound NOT metabolized	Compound NOT metabolized	Compound NOT metabolized	Compound NOT metabolized	Compound NOT metabolized	Compound NOT metabolized	Compound metabolized	Compound NOT metabolized	Compound metabolized	Compound metabolized	Compound metabolized	Compound metabolized	Compound metabolized	Compound NOT metabolized	Compound NOT metabolized	Compound NOT metabolized	O=C1CN2Cc3c(ccc(Cl)c3Cl)N=C2N1 [ANAGRELIDE]	Compound metabolized	Compound NOT metabolized	Compound metabolized	Compound metabolized
Compound NOT metabolized	Compound metabolized	Compound NOT metabolized	Compound NOT metabolized	Compound metabolized	Compound metabolized	Compound metabolized	Compound NOT metabolized		Compound metabolized	Compound metabolized	Compound metabolized	Compound metabolized	Compound NOT metabolized	Compound metabolized	Compound metabolized	COC1=C(OC)C(=O)C(CCCCCCCCCCO)=C(C)C1=O [IDEBENONE]				

Structure (SMILES)	Bacterial Biotransformation [1]	Bacterial Biotransformation [2]	Bacterial Biotransformation [3]	Bacterial Biotransformation [4]	Bacterial Biotransformation [5]	Bacterial Biotransformation [6]	Bacterial Biotransformation [7]	Bacterial Biotransformation [8]	Bacterial Biotransformation [10]	Bacterial Biotransformation [11]	Bacterial Biotransformation [14]	Bacterial Biotransformation [15]	Bacterial Biotransformation [17]	Bacterial Biotransformation [18]	Bacterial Biotransformation [19]	Bacterial Biotransformation [20]	Bacterial Biotransformation [9]	Bacterial Biotransformation [12]	Bacterial Biotransformation [13]	Bacterial Biotransformation [16]
CCN(CC)C(=O)C1(c2ccccc2)CC1CN (stereo unspecified)	Compound NOT metabolized	Compound NOT metabolized	Compound NOT metabolized	Compound NOT metabolized	Compound NOT metabolized	Compound NOT metabolized	Compound NOT metabolized	Compound NOT metabolized	Compound NOT metabolized	Compound NOT metabolized	Compound NOT metabolized	Compound NOT metabolized	Compound NOT metabolized	Compound NOT metabolized	Compound NOT metabolized	Compound NOT metabolized	Compound NOT metabolized	Compound NOT metabolized	Compound NOT metabolized	Compound NOT metabolized
CN(C)C(=O)Oc1cc(OC(=O)N(C)C)cc(C(O)CNC(C)(C)C)c1 (stereo unspecified) [BAMBUTEROL]	Compound NOT metabolized	Compound NOT metabolized	Compound NOT metabolized	Compound NOT metabolized	Compound NOT metabolized	Compound NOT metabolized	Compound NOT metabolized	Compound metabolized	Compound metabolized	Compound NOT metabolized	Compound metabolized	Compound metabolized	Compound metabolized	Compound metabolized	Compound NOT metabolized	Compound NOT metabolized	Compound metabolized	Compound metabolized	Compound NOT metabolized	Compound metabolized
CC(C)C[C@H]1C(=O)N2CCC[C@H]2[C@]2(O)O[C@](NC(=O)[C@@H]3C=C4c5cccc6[nH]c(Br)c(c56)C[C@H]4N(C)C3)(C(C)C)C(=O)N12.CS(=O)(=O)O [BROMOCRIPTINE MESYLATE]	Compound metabolized	Compound metabolized	Compound metabolized	Compound metabolized	Compound metabolized	Compound metabolized	Compound metabolized	Compound metabolized	Compound metabolized	Compound metabolized	Compound metabolized	Compound metabolized	Compound metabolized	Compound metabolized		Compound metabolized	Compound NOT metabolized	Compound metabolized	Compound metabolized	Compound metabolized
Cc1cc2c(s1)Nc1ccccc1N=C2N1CCN(C)CC1 [OLANZAPINE]	Compound NOT metabolized	Compound NOT metabolized	Compound NOT metabolized	Compound NOT metabolized	Compound NOT metabolized	Compound NOT metabolized	Compound NOT metabolized	Compound metabolized		Compound NOT metabolized	Compound NOT metabolized	Compound NOT metabolized	Compound NOT metabolized	Compound NOT metabolized	Compound metabolized	Compound NOT metabolized	Compound NOT metabolized	Compound NOT metabolized	Compound NOT metabolized	Compound metabolized
